Key:
[1] = test system: C3; experiment: C3 mRNA (RT-PCR) in HepG2 cells; type: cell-based, human; settings: 2 hours
Method: A liver cell line, HepG2 (American Type Culture Collection, ATCC, Rockville, Md.), is incubated and maintained at 37° C., 5% CO2 humid atmosphere in DMEM medium. When HepG2 cells, which are known to produce complement in culture, are treated with PLAG, the activity of complement is reduced effectively, as confirmed by RT-PCR of mRNA. In the RT-PCR, 5×10^5 number of HepG2 cells/ml are distributed into 12 well plates and induced C3 for 12 hours with 10% FCS. Then PLAG is added and further cultured for 2 hours. Cells are harvested and mRNA is isolated and RT-PCR is carried out with specific primer of C3; GAPDH is used as an internal control.

[2] = test system: neutrophils, lymphocytes and eosinophils; experiment: Neutrophil, lymphocyte and eosinophil ratio after Tamoxifen and PLAG in mice; type: in vivo; settings: Tam 100 mg/kg + PLAG 5 mg/kg, after 15 hours
Method: 100 mg/kg of anticancer agent Tamoxifen (Tam) is used to induce reduction of neutrophils, followed by treated with 5 mg/kg of PLAG and the ratios of neutrophil (NEU), lymphocyte (LYM), and eosinophil (EOS) are measured after 15 hours as in the previous experiment.

[3] = test system: platelets; experiment: Phenylhydrazine-induced platelet reduction in mice; type: in vivo; settings: PHZ 100 mg/kg i.p. + PLAG 5 mg/kg oral
Method: (§1) Mice are injected with 100 mg/kg phenylhydrazine (PHZ), i.p., to induce anemia and reduction of platelets. 5 mg/kg PLAG is administered to the mice orally and blood samples are taken at 3 and 13 days after. In addition, for comparison, normal mice which are not treated with phenylhydrazine are prepared as a normal group, and mice treated with PHZ and olive oil instead of PLAG are prepared as a control group. The blood samples taken from the mice are treated with 0.5 ml EDTA (Minicollect tube, Greiner bio-one, Austria) and concentration of platelet is measured using automated blood sample analyzer BC-6800 (Mindray, Shenzhen, China) by number of platelet per […] (k: 1,000).

[4] = test system: platelets; experiment: Tamoxifen-induced platelet reduction in mice; type: in vivo; settings: Tam 100 mg/kg + PLAG 5 mg/kg, after 15 hours
Method: as §1
The experiment is repeated using Tamoxifen (Tam), an anticancer agent, injected at the amount of 100 mg/kg, or lipopolysaccharide (LPS), an inflammation inducer, at the amount of 1 mg/kg to induce platelet reduction. Platelet concentration is measured 15 hours after PLAG treatment. For comparison, olive oil and PBS are used instead of PLAG as controls, respectively for the Tamoxifen and lipopolysaccharide experiment.

[5] = test system: sepsis; settings: sepsis animal model, cecal-ligation-puncture; stated as known; cited from earlier work

Compound: CCCCC/C=C\C/C=C\CCCCCCCC(=O)OC(COC(C)=O)COC(=O)CCCCCCCCCCCCCCC (racemic) [PLAG, 1-palmitoyl-2-linoleoyl-3-acetylglycerol]
- C3 expression (RT-PCR) ([1]; HepG2, 1 microgram/ml): somewhat
- C3 expression (RT-PCR) ([1]; HepG2, 10 microgram/ml): entirely
- Eosinophil Ratio [2]: 15.1 ± 0.3%
- Lymphocyte ratio [2]: 45.7 ± 4.1%
- Neutrophil Ratio [2]: 35.2 ± 2.4%
- Platelet (day 3) Conc ([3]; day 3): 1072 ± 125.4 k/ul
- Platelet (day 13) Conc ([3]; day 13): 1188.8 ± 115.6 k/ul
- Platelet Conc. [4]: 780.7 ± 195.9 k/ul
- survivability ratio of animals [5]: increases survivability ratio
